Reference: patent publication US10045962B2 (priority 2014, dated 2018)
Structures can show the parent of a compound that is named as a salt.

Legend:
[1] = test system: MDA-MB-231 (mammary gland, adenocarcinoma); details: 10 μM, 72 hours
Procedure: (§1) These cells were seeded at an amount of 2×10^6 cells, and then added with the culture medium for cultivating the cells to a volume of 10 mL, followed by cultivation for 2 to 3 days. After counting the cell number, these cells were respectively plated in a 96-well plate, in which each well has a fixed cell number of 3000 and a volume of 100 μL.
(§2) After removing the culture medium in the 96-well plate, each well was added with 100 μL of 10 μM commercial drug and then placed for 72 hours. Thereafter, each well was further added with 100 μL of a diluted WST-1 solution (the dilution ratio for the culture medium: WST-1 stock solution (wt/wt) is 9:1).
(§3) Each cancer cell inhibitory experiment was repeated for 4 times, followed by calculation of the mean values thereof, which were shown in the following tables.

[2] = test system: HCT116-wt (colorectal carcinoma); details: 10 μM, 72 hours
Procedure: as §1, §2, §3

TOV-21G = details: 10 μM, 72 hours
Procedure: as §1, §2

Prostate cancer = details: summary over cell lines, 10 μM, 72 hours
Procedure: as §1, §2

[3] = test system: C-33A (cervical carcinoma); details: 10 μM, 72 hours
Procedure: as §1, §2

[4] = test system: SAS (tongue squamouscell carcinoma); details: 10 μM, 72 hours
Procedure: as §1, §2, §3

NIH-OVCAR-3 = details: 10 μM, 72 hours
Procedure: as §1, §2

[5] = test system: HepG2 (hepatocellular carcinoma); details: 10 μM, 72 hours
Procedure: as §1, §2, §3

[6] = test system: H1650 (lung adenocarcinoma); details: 10 μM, 72 hours
Procedure: as §1, §2

[7] = test system: 786-O (renal adenocarcinoma); details: 10 μM, 72 hours
Procedure: as §1, §2

[8] = test system: BCC (basal cell carcinoma); details: 10 μM, 72 hours
Procedure: as §1, §2

Pancreatic cancer = details: summary over cell lines, 10 μM, 72 hours
Procedure: as §1, §2

AsPC-1 = details: 10 μM, 72 hours
Procedure: as §1, §2, §3

Skin cancer = details: summary over cell lines, 10 μM, 72 hours
Procedure: as §1, §2

Colorectal cancer = details: summary over cell lines, 10 μM, 72 hours
Procedure: as §1, §2

[9] = test system: Hep3B (hepatocellular carcinoma); details: 10 μM, 72 hours
Procedure: as §1, §2, §3

Cervical cancer = details: summary over cell lines, 10 μM, 72 hours
Procedure: as §1, §2

LNCap = details: 10 μM, 72 hours, single experiments not given
[10] = test system: HeLa (cervix adenocarcinoma); details: 10 μM, 72 hours
Procedure: as §1, §2

Ovarian cancer = details: summary over cell lines, 10 μM, 72 hours
Procedure: as §1, §2

T24 = details: 10 μM, 72 hours
Procedure: as §1, §2, §3

Procedure for normal cells: as §1, §2
Each cell inhibitory experiment was repeated for 4 times, followed by calculation of the mean values thereof, which were shown in the following tables.

## CNCC[C@H](Oc1cccc2ccccc12)c1cccs1 [duloxetine HCl, Duloxetine hydrochloride]
[1]; mean of 3 printed experiments
  Mean (survival rate): 65.9%
[1]; single experiment
  survival rate 0612-10 min: 53.4%
  survival rate 0614-10 min: 70.2%
  survival rate 0616-10 min: 74.3%
[2]; mean of 4 experiments
  Mean survival rate (%): 77.1%
[2]; single experiment
  survival rate 0602-30 min: 52.1%
  survival rate 0605-10 min: 108.8%
  survival rate 0607-10 min: 127.4%
  survival rate 0609-10 min: 20.3%
TOV-21G; mean of 4 experiments
  Mean (survival rate): 34.9%
TOV-21G; single experiment
  survival rate 7-3-30 min: 30.9%
  survival rate 7-4-30 min: 41.9%
  survival rate 7-7-30 min: 34.7%
  survival rate -4-30 min: 31.9%
Prostate cancer
  Survival rate (%): 59.23%
[3]; mean of 4 experiments
  Mean survival rate (%): 40.7%
[3]; single experiment
  survival rate 0524-10 min: 34.3%
  survival rate 0526-10 min: 52.4%
  survival rate 0529-10 min: 33.7%
  survival rate 0531-10 min: 42.4%
[4]; Lingual cancer (SAS), summary table
  Survival rate (%): 82.44%
[4]; SAS, mean of 4 experiments
  Mean survival rate (%): 82.4%
[4]; SAS, single experiment
  survival rate 6-26-10 min: 45.7%
  survival rate 6-28-10 min: 88.9%
  survival rate 6-30-10 min: 96.2%
  survival rate 7-3-10 min: 98.9%
NIH-OVCAR-3; mean of 4 experiments
  Mean survival rate (%): 68.2%
NIH-OVCAR-3; single experiment
  survival rate 7-3-30 min: 64.8%
  survival rate 7-4-30 min: 74.6%
  survival rate 7-7-30 min: 78.5%
  survival rate -4-30 min: 55.0%
[5]; mean of 4 experiments
  Mean survival rate (%): 34.0%
[5]; single experiment
  survival rate 0524-20 min: 14.8%
  survival rate 0526-20 min: 44.7%
  survival rate 0529-20 min: 37.7%
  survival rate 0531-20 min: 38.9%
[6]; mean of 4 experiments
  Mean (survival rate): 36.3%
[6]; single experiment
  survival rate 1-10 min: 35.2%
  survival rate 2-20 min: 36.9%
  survival rate 3-20 min: 33.6%
  survival rate 4-20 min: 39.4%
[7]; 786-O, mean of 4 experiments
  Mean survival rate (%): 67.3%
[7]; 786-O, single experiment
  survival rate 0524-10 min: 60.4%
  survival rate 0526-10 min: 89.7%
  survival rate 0529-10 min: 49.0%
  survival rate 0531-10 min: 70.1%
[7]; Renal cancer (786-O), summary table
  Survival rate (%): 67.3%
[8]; mean of 3 experiments
  Mean (survival rate): 48.1%
[8]; single experiment
  survival rate 0602-30 min: 43.9%
  survival rate 0605-10 min: 31.3%
  survival rate 0607-10 min: 69.0%
Pancreatic cancer
  Survival rate (%): 57.2%
AsPC-1; mean of 4 experiments
  Mean survival rate (%): 60.3%
AsPC-1; single experiment
  survival rate 1-4-30 min: 61.7%
  survival rate 1-7-3-30 min: 75.7%
  survival rate 1-7-4-30 min: 78.0%
  survival rate 1-7-7-30 min: 26.0%
Skin cancer
  Survival rate (%): 39.79%
Colorectal cancer
  Survival rate (%): 62.21%
[9]; mean of 4 experiments
  Mean (survival rate): 47.9%
[9]; single experiment
  survival rate 0612-20 min: 41.4%
  survival rate 0614-20 min: 53.3%
  survival rate 0616-20 min: 36.2%
  survival rate 0619-20 min: 60.6%
Cervical cancer
  Survival rate (%): 36.76%
LNCap
  Mean (survival rate): 72.8%
[10]; mean of 4 experiments
  Mean survival rate (%): 33.8%
[10]; single experiment
  survival rate 0524-10 min: 27.7%
  survival rate 0526-10 min: 29.9%
  survival rate 0529-10 min: 25.4%
  survival rate 0531-10 min: 52.1%
Normal cells; normal cells
  cytotoxicity to the normal cells: little or no cytotoxicity
Normal cells; normal cells versus tumor cells
  selective effect between normal cells and tumor cells: selective effect
Ovarian cancer
  Survival rate (%): 51.5%
T24; mean of 4 experiments
  Mean (survival rate): 85.2%
T24; single experiment
  survival rate T24-1-30 min: 81.7%
  survival rate T24-2-20 min: 90.6%
  survival rate T24-3-20 min: 71.4%
  survival rate T24-4-20 min: 97.2%
